Test results from article PMC2362735, “New semisynthetic vinca alkaloids: chemical, biochemical and cellular studies” (British Journal of Cancer, 1999).

Test system: Mouse Ehrlich ascites tumour cells
Assay: In vivo anti-tumour effect on Ehrlich ascites carcinoma, single i.p. dose 4 days after transplantation
From the text: The numerous antimitotic drugs already developed and therapeu- tically used for a large number of pathologies belong to different classes based on their chemical structure and other distinctive features. Antimitotic drugs usually target the tubulin/microtubule network of the cytoskeleton that is formed by assembly of cyto- plasmic tubulin dimers. The stability of the different microtubular structures varies considerably; some of their functions depend on their lability. The lability is augmented by the extreme sensitivity to various drugs. Several synthetic and natural compounds interact specifically with tubulin and/or microtubule, fundamentally destroying its dynamic character and leading to cell death. […] Because of their extensive clinical use, it is important to synthesize additional agents having at least the same biological activity. […] Nevertheless, it is unclear yet how the anti-calmodulin activity of these drugs is related to their desired and undesired pharmacological effects. […] The synthesis of the KAR derivatives are presented. […] Taxol, GTP and trifluoperazine were purchased from Sigma. All organic reagents for synthesis of the new compounds were obtained from Aldrich and were of the highest grade. All other chemicals were reagent grade commercial preparations. […] Tubulin was stored in 1 M sucrose, 10 mM sodium phosphate buffer, 0.5 mM magnesium chloride and 0.1 mM GTP, pH 7.0, at -80C and dialysed against the appropriate buffer before use. […] PFK, aldolase and glycerol-3-phosphate dehydrogenase- triosephosphate isomerase purified from rabbit skeletal muscle were purchased in ammonium sulphate suspensions from Sigma or Boehringer. The enzyme suspensions were centrifuged at 10 000g for 5 min. The pellets were suspended in the appropriate buffer, then the enzymes were gel filtered or dialysed in the same buffer to remove ammonium sulphate. […] (Figure 1B; R1 , CH3; R2 , CH2 CH2 Cl). […] After 2 h incubation at room temperature, 200 ml dried toluene was added to the reaction mixture. […] The mixture was stirred for 30 min. After separation of the organic phase, it was washed with water (3 x 30 ml) and dried with potassium sulphate and evaporated on a water bath of 35-40C at 20-27 hPa. The resulting material was chromatographed on silica gel (500 g, bead size of 0.040- 0.063 mm) column (30 mm x 500 mm) using ethyl acetate/ethanol (9:1) mixture as eluent. […] The mixture was kept for 4 h at room temperature and then evaporated on a water bath at 40C under a vacuum of 80 hPa to a final volume of 5-6 ml. […] (Figure 1B, R1 , CHO; R2 , CH2 CH2 Cl). […] Synthesis of KAR-4 [3-allyl-2,4-dioxo-3,5-spiro-oxazolidino- 4-deacetoxy-vinblastine] (Figure 1B; R1 , CH3; R2 , CH2 CH=CH2 ). […] NMR measurements were carried out on a Varian Unity plus-500 instrument (500 MHz for 1H and 125 MHz for 13C) in DMSO. Chemical shifts were determined relative to dTMS = 0.00 p.p.m. 1H and 13C signal assignments were verified by a concerted use of two-dimensional 1H-1H and 1H-13C shift correlation methods (DQFCOSY, HSQC, HMBC) and NOESY experiments. The gradient-enhanced DQFCOSY, HSQC, HMBC and NOESY experiments were recorded by using the standard spectrometer software package. A mixing time of tmix = 0.5 s was used for the NOESY experiments.

[1] = Table 2A, 40 mg kg-1 single dose i.p.
[2] = Table 2B, 20 mg kg-1 single dose i.p.
[3] = Table 2B, 40 mg kg-1 single dose i.p.
[4] = Table 2B, 60 mg kg-1 single dose i.p.
[5] = Table 2B, 80 mg kg-1 single dose i.p.

CC[C@]1(O)C[C@@H]2CN(CCc3c([nH]c4ccccc34)[C@@](C(=O)OC)(c3cc4c(cc3OC)N(C)[C@@H]3[C@]45CCN4CC=C[C@@](CC)(C[C@@]36OC(=O)N(CCCl)C6=O)[C@H]45)C2)C1 [KAR-2, 3′-(β-chloroethyl)-2′,4′-dioxo-3,5′-spiro-oxazolidino-4-deacetoxy-vinblastine]
mortality of treated animals (80 mg kg-1 single dose i.p., three mice per group): The animals were dying in the same day of the sacrifice
Cells ml-1 (per cent of control) [1]: 56 per cent of control
Total cells (per cent of control) [1]: 24 per cent of control
Volume of tumour per mouse (Table 2A, 40 mg kg-1 single dose i.p., sacrifice 8 days after implantation, control 5.33 ml): 2.33 mL
Cells ml-1 (per cent of control) [2]: 63 per cent of control
Total cells (per cent of control) [2]: 46 per cent of control
Volume of tumour per mouse (Table 2B, 20 mg kg-1 single dose i.p., control 2.67 ml): 1.97 mL
Cells ml-1 (per cent of control) [3]: 60 per cent of control
Total cells (per cent of control) [3]: 24 per cent of control
Volume of tumour per mouse (Table 2B, 40 mg kg-1 single dose i.p., control 2.67 ml): 1.17 mL
Cells ml-1 (per cent of control) [4]: 46 per cent of control
Total cells (per cent of control) [4]: 29 per cent of control
Volume of tumour per mouse (Table 2B, 60 mg kg-1 single dose i.p., control 2.67 ml): 1.70 mL
Cells ml-1 (per cent of control) [5]: 211 per cent of control
Total cells (per cent of control) [5]: 36 per cent of control
Volume of tumour per mouse (Table 2B, 80 mg kg-1 single dose i.p., control 2.67 ml): 0.45 mL
